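Cultured in 96-well plates, cells were exposed to test compound for 48 hours across five concentrations. GI50: concentration for 50% inhibition of growth. TGI: concentration producing complete growth inhibition.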
How the values were obtained:
Experiment in all cases: NCI anticancer screen, dose series, 48 h
HCT-15 colon = tested on: HCT-15 colon
HT29 colon = tested on: HT29 colon
BT-549 breast = tested on: BT-549 breast
MDA-MB-435 = tested on: MDA-MB-435
SF-539 CNS = tested on: SF-539 CNS
K-562 leukemia = tested on: K-562 leukemia
RXF 393 renal = tested on: RXF 393 renal
U251 CNS = tested on: U251 CNS
PC-3 prostate = tested on: PC-3 prostate
TK-10 renal = tested on: TK-10 renal
OVCAR-5 ovarian = tested on: OVCAR-5 ovarian
OVCAR-4 ovarian = tested on: OVCAR-4 ovarian
MALME-3M melanoma = tested on: MALME-3M melanoma
NCI-H522 lung = tested on: NCI-H522 lung
HCT-116 colon = tested on: HCT-116 colon
SW-620 colon = tested on: SW-620 colon
SK-OV-3 ovarian = tested on: SK-OV-3 ovarian
KM12 colon = tested on: KM12 colon
LOX IMVI melanoma = tested on: LOX IMVI melanoma
NCI-H226 lung = tested on: NCI-H226 lung
MOLT-4 leukemia = tested on: MOLT-4 leukemia
SK-MEL-2 melanoma = tested on: SK-MEL-2 melanoma
UACC-62 melanoma = tested on: UACC-62 melanoma
EKVX NSCLC = tested on: EKVX NSCLC
IGROV1 ovarian = tested on: IGROV1 ovarian
NCI-H460 lung = tested on: NCI-H460 lung
SN12C renal = tested on: SN12C renal
MCF7 breast = tested on: MCF7 breast
HCC-2998 colon = tested on: HCC-2998 colon
MDA-MB-231 breast = tested on: MDA-MB-231 breast
NCI/ADR-RES ovarian = tested on: NCI/ADR-RES ovarian
M14 melanoma = tested on: M14 melanoma
SF-295 CNS = tested on: SF-295 CNS
HS 578T breast = tested on: HS 578T breast
COLO 205 colon = tested on: COLO 205 colon
RPMI-8226 leukemia = tested on: RPMI-8226 leukemia
SNB-19 CNS = tested on: SNB-19 CNS
SK-MEL-5 melanoma = tested on: SK-MEL-5 melanoma
ACHN renal = tested on: ACHN renal
786-0 renal = tested on: 786-0 renal
SNB-75 CNS = tested on: SNB-75 CNS
A498 renal = tested on: A498 renal
OVCAR-3 ovarian = tested on: OVCAR-3 ovarian
NCI-H23 lung = tested on: NCI-H23 lung
DU-145 prostate = tested on: DU-145 prostate
A549 NSCLC = tested on: A549 NSCLC
UO-31 renal = tested on: UO-31 renal
SR leukemia = tested on: SR leukemia
UACC-257 melanoma = tested on: UACC-257 melanoma
OVCAR-8 ovarian = tested on: OVCAR-8 ovarian
CCRF-CEM leukemia = tested on: CCRF-CEM leukemia
CAKI-1 renal = tested on: CAKI-1 renal
HOP-62 NSCLC = tested on: HOP-62 NSCLC
SK-MEL-28 melanoma = tested on: SK-MEL-28 melanoma
SF-268 CNS = tested on: SF-268 CNS
HL-60(TB) leukemia = tested on: HL-60(TB) leukemia

## Cc1c(C(=O)O)n(-c2ccc(Cl)cc2)c2ncnc(N)c12
HCT-15 colon
  GI50: 24.1 µM
  TGI: 96.9 µM
HT29 colon
  GI50: 22.6 µM
  TGI: 51 µM
BT-549 breast
  GI50: 21.7 µM
  TGI: 58.7 µM
MDA-MB-435
  GI50: 33.2 µM
  TGI: > 100 µM
SF-539 CNS
  GI50: 22.7 µM
  TGI: 48.6 µM
K-562 leukemia
  GI50: 21.4 µM
  TGI: > 100 µM
RXF 393 renal
  GI50: 13.6 µM
  TGI: 39.5 µM
U251 CNS
  GI50: 31.8 µM
  TGI: > 100 µM
PC-3 prostate
  GI50: 19.4 µM
  TGI: 54.6 µM
TK-10 renal
  GI50: 21.8 µM
  TGI: 70.1 µM
OVCAR-5 ovarian
  GI50: 46.4 µM
  TGI: > 100 µM
OVCAR-4 ovarian
  GI50: 48.4 µM
  TGI: > 100 µM
MALME-3M melanoma
  GI50: 31.5 µM
  TGI: 75.7 µM
NCI-H522 lung
  GI50: 16 µM
  TGI: 50.5 µM
HCT-116 colon
  GI50: 20.5 µM
  TGI: 47.7 µM
SW-620 colon
  GI50: 32.3 µM
  TGI: > 100 µM
SK-OV-3 ovarian
  GI50: 43.9 µM
  TGI: 75.1 µM
KM12 colon
  GI50: 29.9 µM
  TGI: > 100 µM
LOX IMVI melanoma
  GI50: 30.1 µM
  TGI: > 100 µM
NCI-H226 lung
  GI50: 14.9 µM
  TGI: 50.2 µM
MOLT-4 leukemia
  GI50: 31.2 µM
  TGI: > 100 µM
SK-MEL-2 melanoma
  GI50: 46.9 µM
  TGI: > 100 µM
UACC-62 melanoma
  GI50: 17 µM
  TGI: 41.9 µM
EKVX NSCLC
  GI50: 17.2 µM
  TGI: 56.1 µM
IGROV1 ovarian
  GI50: 14.6 µM
  TGI: > 100 µM
NCI-H460 lung
  GI50: 14.5 µM
  TGI: 37.8 µM
SN12C renal
  GI50: 19.5 µM
  TGI: 57.1 µM
MCF7 breast
  GI50: > 100 µM
  TGI: > 100 µM
HCC-2998 colon
  GI50: 23.6 µM
  TGI: 57.1 µM
MDA-MB-231 breast
  GI50: 18 µM
  TGI: 70.1 µM
NCI/ADR-RES ovarian
  GI50: 25.1 µM
  TGI: > 100 µM
M14 melanoma
  GI50: 22.6 µM
  TGI: 53.6 µM
SF-295 CNS
  GI50: 28.7 µM
  TGI: > 100 µM
HS 578T breast
  GI50: 23.1 µM
  TGI: 69.6 µM
COLO 205 colon
  GI50: 21.7 µM
  TGI: 43.3 µM
RPMI-8226 leukemia
  GI50: 12.4 µM
  TGI: 35.8 µM
SNB-19 CNS
  GI50: 36.4 µM
  TGI: 97.6 µM
SK-MEL-5 melanoma
  GI50: 16.2 µM
  TGI: 29.9 µM
ACHN renal
  GI50: 22.6 µM
  TGI: 96.9 µM
786-0 renal
  GI50: 21.1 µM
  TGI: 56.2 µM
SNB-75 CNS
  GI50: 62 µM
  TGI: > 100 µM
A498 renal
  GI50: 19.4 µM
  TGI: 52.2 µM
OVCAR-3 ovarian
  GI50: 17.5 µM
  TGI: > 100 µM
NCI-H23 lung
  GI50: 16.7 µM
  TGI: 37.2 µM
DU-145 prostate
  GI50: 24.1 µM
  TGI: 75.4 µM
A549 NSCLC
  GI50: 17.4 µM
  TGI: 65.3 µM
UO-31 renal
  GI50: 10.3 µM
  TGI: > 100 µM
SR leukemia
  GI50: 16.6 µM
  TGI: > 100 µM
UACC-257 melanoma
  GI50: 36.2 µM
  TGI: > 100 µM
OVCAR-8 ovarian
  GI50: 14 µM
  TGI: 59.9 µM
CCRF-CEM leukemia
  GI50: 27.8 µM
  TGI: 90.5 µM
CAKI-1 renal
  GI50: 19.2 µM
  TGI: 67.8 µM
HOP-62 NSCLC
  GI50: 20 µM
  TGI: 58.6 µM
SK-MEL-28 melanoma
  GI50: 64.8 µM
  TGI: > 100 µM
SF-268 CNS
  GI50: 12.2 µM
  TGI: 38.9 µM
HL-60(TB) leukemia
  GI50: 37.3 µM
  TGI: > 100 µM

Reference: PubChem BioAssay (NCI)
